The numbers were not newly measured in paper PMC9090141 (Pediatric blood & cancer, 2021), which cites them from elsewhere.

The data set deals with pediatric cancer cell lines. To be noted: cited from earlier work.

Where a name gives a salt, the structure may show the parent alone.

As to `COc1cccc(OCCCN)c1-c1cc(Nc2cnc(C#N)cn2)n[nH]1` [prexasertib, Prexasertib mesylate monohydrate], the “inhibition of cell proliferation, potency” value is on record as “low nanomolar concentrations”.
